For orientation: inhibition means the relative decrease from the control value, in per cent.

The text below walks through data of patent US20070207093A1, “Hydrazone derivatives and uses thereof” (Linquagen Corp., priority 2005, published 2007).

Format in all cases: cell-based
The target in one assay is T1, human TRPM5 ion channel (Homo sapiens, UniProt Q9NZQ8).
T1 construct: expressed in transfected cells
T1 sequence (Q9NZQ8 1-1165): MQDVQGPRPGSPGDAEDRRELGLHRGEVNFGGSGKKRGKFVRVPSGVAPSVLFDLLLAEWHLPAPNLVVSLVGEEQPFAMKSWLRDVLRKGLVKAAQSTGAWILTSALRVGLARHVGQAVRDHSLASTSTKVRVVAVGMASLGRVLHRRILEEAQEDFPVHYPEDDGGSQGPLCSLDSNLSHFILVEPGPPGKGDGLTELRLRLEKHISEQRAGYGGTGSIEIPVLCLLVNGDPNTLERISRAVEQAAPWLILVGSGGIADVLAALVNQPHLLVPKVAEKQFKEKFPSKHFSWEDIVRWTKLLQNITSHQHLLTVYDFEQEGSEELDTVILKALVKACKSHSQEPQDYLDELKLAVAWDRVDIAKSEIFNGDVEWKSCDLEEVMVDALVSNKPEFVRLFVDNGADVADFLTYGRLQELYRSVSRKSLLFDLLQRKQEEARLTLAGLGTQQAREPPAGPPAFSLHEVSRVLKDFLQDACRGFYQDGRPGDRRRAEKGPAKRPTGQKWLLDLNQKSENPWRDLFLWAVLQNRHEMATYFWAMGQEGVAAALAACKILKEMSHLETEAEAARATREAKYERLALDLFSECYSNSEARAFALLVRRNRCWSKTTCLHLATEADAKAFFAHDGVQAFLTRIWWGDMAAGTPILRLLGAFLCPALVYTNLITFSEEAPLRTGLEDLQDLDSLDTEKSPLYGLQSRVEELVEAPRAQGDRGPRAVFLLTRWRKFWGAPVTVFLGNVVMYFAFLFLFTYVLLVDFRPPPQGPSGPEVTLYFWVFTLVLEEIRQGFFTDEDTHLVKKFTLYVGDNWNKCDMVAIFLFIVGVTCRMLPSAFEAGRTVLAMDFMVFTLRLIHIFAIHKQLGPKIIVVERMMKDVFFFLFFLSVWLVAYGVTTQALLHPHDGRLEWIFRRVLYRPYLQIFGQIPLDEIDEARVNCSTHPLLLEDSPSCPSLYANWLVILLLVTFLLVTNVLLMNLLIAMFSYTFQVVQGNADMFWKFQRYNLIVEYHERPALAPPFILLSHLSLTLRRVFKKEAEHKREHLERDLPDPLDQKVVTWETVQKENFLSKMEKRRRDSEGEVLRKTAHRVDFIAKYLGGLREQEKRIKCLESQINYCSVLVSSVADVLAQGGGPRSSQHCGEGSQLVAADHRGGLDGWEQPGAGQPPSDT
The assay is described as follows: TRPM5 FLIPR membrane potential screening assay (ATP stimulation). Particulars: 10 μM compound; HEK293 cells stably expressing human TRPM5; 3 μM ATP stimulation; versus negative control wells; read-out: TRPM5 Activity (percent inhibition). The method, then: The activity of human TRPM5 ion channel was measured in live cells on a fluorescent imaging plate reader (FLIPR). The basis of the assay (shown in FIG. 1) is the calcium-dependent activation of the ion channel which occurs via by activation of a G-protein coupled receptor (GPCR). GPCR activation by an appropriate agonist causes a transient increase in […] Ca^2+ ion concentration which in turn causes the ion channel to open, letting in Na^+ ions. This influx causes a change in the membrane potential of the cell which can be monitored as a change in the fluorescent signal from voltage-dependent (membrane potential) fluorescent dyes.
For the screening assay, the human TRPM5 gene was cloned, put into HEK293 cells, and a stable, high expression clone was used for screening. Cells were grown in standard media at 37° C. The day before screening, the cells were removed from flasks and added to 384 well clear bottom plates (8K cells in 20 μL/well). On the assay day, 20 μL of membrane potential dye (Part No. R8123, Molecular Devices Corp.) was added to the cells and dye was allowed to be taken up, i.e., load, into the cells for 1 hr at 37° C. […] The assay was started by addition of 10 μL of solution from the compound plate into the cell plate. During this process, continuous fluorescent recordings were made simultaneously for all wells. After addition of the compound solution, the tips were automatically washed and a stimulation solution of 3 μM ATP (an agonist for an endogenous purinurgic GPCR, was added to all wells of the cell plate. The height of the response was calculated and percent inhibition values, versus negative control wells, was calculated for the test samples.
(§1) Unless otherwise indicated, the data in the table below were determined using the three assays described above, providing percent inhibition data at 10 μM.

Assay [1] has as its system GPCR-mediated calcium activation step. Briefly: Calcium counterscreen (calcium sensitive dye, ATP stimulation). Particulars: Homo sapiens, 10 μM compound, same HEK293 TRPM5 cells, Calcium3 dye, read-out: Calcium Counterscreen (percent inhibition). How it is done:
(§2) Two counterscreen assays were run on separate cell plates utilizing the same cells as described above. In the calcium counterscreen, the cells were loaded with a calcium sensitive dye (Calcium3 Dye, Part no. 8090, Molecular Devices Corp.) and stimulated by ATP to check for compounds that block the GPCR-mediated calcium activation step. In the KCl counterscreen, cells are stimulated with 10 mM KCl instead of ATP to check for compounds that inhibit the membrane potential response by virtue of being non-specific ion channel blockers.
as §1
In general terms: The purpose of a counterscreen is to sort out artefacts and off-target activity.

In assay [2] the test system is membrane potential response (non-specific ion channel block). The assay is described as follows: KCl counterscreen (membrane potential dye, 10 mM KCl stimulation). The conditions noted are these: Homo sapiens; 10 μM compound; same HEK293 TRPM5 cells; 10 mM KCl instead of ATP; read-out: KC1 Counterscreen (percent inhibition). How it is done: as §2, §1

As for `COC(=O)c1ccc(/N=N/C(=N\Nc2nc3ccccc3s2)C(C)C)cc1` [Example 1, Methyl 4-((E)-((Z)-1-(2-(benzo[d]thiazol-2-yl)hydrazono) -2-methylpropyl)diazenyl)benzoate], the inhibition at 10 µM was 60% at human TRPM5 ion channel, -11% in assay [1] and 20% in assay [2].

As to `O=C(O)COc1ccc(Br)cc1/C=N/Nc1cccc2cccnc12` [Example 2, (E)-2-(4-Bromo-2-((2-(quinolin-8-yl)hydrazono)methyl)phenoxy)acetic acid], the results for the inhibition at 10 µM (on human TRPM5 ion channel; in assay [1]; in assay [2]) were 87%, -10% and 70%, respectively.

With `COc1ccc(/C=N/NC(=O)C2CC2c2ccccc2)cc1OC` (stereo not drawn) [Example 4, (E)-N′-(3,4-Dimethoxybenzylidene)-2-phenylcyclopropanecarbohydrazide], the figures for the inhibition at 10 µM (on human TRPM5 ion channel; in assay [1]; in assay [2]) were 99%, -1% and -4%, respectively.

With `COc1ccc(/C=N/NC(=O)CC(CO)C2=CCCCC2)cc1` (stereo not drawn) [Example 5, (E)-3-Cyclohexenyl-4-hydroxy-N′-(4-methoxybenzylidene)butanehydrazide], the inhibition at 10 µM was 96% at human TRPM5 ion channel, -7% in assay [1] and 29% in assay [2].

Turning to `CCCCCCCC(O)CCC(=O)N/N=C/c1ccc(OC)c(OC)c1` (stereo not drawn) [Example 6], the inhibition at 10 µM at human TRPM5 ion channel is 93%; in assay [1], 0%; in assay [2], -15%.

For the compound `O=C(O)c1ccccc1N/N=C(\N=N\c1ccccc1)c1ccccc1` [Example 7, 2-((Z)-2-(Phenyl-((E)-phenyldiazenyl) -methylene)hydrazinyl)benzoic acid], the inhibition at 10 µM on human TRPM5 ion channel was 83%; in assay [1], -17%; in assay [2] it was 81%.

As to `COc1ccc(/C=N/NC(=O)COc2cccc(C)c2)cc1OC` [Example 8, (E)-N′-(3,4-Dimethoxybenzylidene)-2-(m-tolyloxy)acetohydrazide], the inhibition at 10 µM on human TRPM5 ion channel was 76%; in assay [1], -3%; in assay [2], 7%.

Consider `C=CCOc1ccc(/C=N/NC(=O)CSCc2cccc(Br)c2)cc1OC` [Example 9, (E)-N′-(4-(Allyloxy)-3-methoxybenzylidene)-2-(3-bromobenzylthio)acetohydrazide], for which the inhibition at 10 µM at human TRPM5 ion channel is 80%; in assay [1], 2%; in assay [2] it was 21%.

Take `CC(C)c1ccc(/C=N/NC(=O)C2C3CCCCC32)cc1` (stereo not drawn) [Example 10, (E)-N′-(4-Isopropylbenzylidene)bicyclo[4.1.0.]heptane-7-carbohydrazide]: the figures for the inhibition at 10 µM (on human TRPM5 ion channel; in assay [1]; in assay [2]) were 78%, -38% and -11%, respectively.

Regarding `CN1/C(=C\C=N\Nc2ccc([N+](=O)[O-])cc2)C(C)(C)c2ccccc21` [Example 11, (Z)-1,3,3-Trimethyl-2-((E)-2-(2-(4-nitrophenyl)hydrazono)ethylidene)indoline], the inhibition at 10 µM is 67% on human TRPM5 ion channel, 23% in assay [1] and 14% in assay [2].

As for `CCN(CC)c1ccc(/C=N/NC(=O)C2CC2c2ccccc2)c(O)c1` (stereo not drawn) [Example 12, (E)-N′-(4-(Diethylamino)-2-hydroxybenzylidene) -2-phenylcyclopropanecarbohydrazide], the inhibition at 10 µM on human TRPM5 ion channel is 48%; in assay [1] it was -35%; in assay [2], -7%.

Regarding `N#CC(C#N)=NNc1ccc(SC(F)(F)F)cc1` [Example 13, (4-(Trifluoromethylthio)penyl)carbonohydrazonoyldicyanide], the inhibition at 10 µM at human TRPM5 ion channel worked out at 78%; in assay [1] it was 2%; in assay [2] it was 65%.

As for `Cc1ccc2c(c1)/C(=N/NC(=O)/C(=C\c1ccccc1)NC(=O)c1ccccc1)C(=O)N2C` [Example 14, N-((E)-3-((Z)-2-(1,5-Dimethyl-2-oxoindolin-3-ylidene)hydrazinyl)-3-oxo-1-phenylprop-1-en-2-yl)benzamide], the figures for the inhibition at 10 µM (on human TRPM5 ion channel; in assay [1]; in assay [2]) were 78%, -29% and 40%, respectively.

Turning to `CCCCn1cc(/C=N\Nc2ccccc2C(=O)O)c2ccccc21` [Example 15, (Z)-2-(2-((1-Butyl-1H-indol-3-yl)methylene)hydrazinyl)benzoic acid], the inhibition at 10 µM at human TRPM5 ion channel amounted to 74%; in assay [1] it was 4%; in assay [2] it was 43%.

On to `C(=N\N(Cc1ccccc1)c1ccccc1)/c1ccncc1` [Example 16, (E)-4-((2-Benzyl-2-phenylhydrazono)methyl)pyridine], for which the inhibition at 10 µM on human TRPM5 ion channel is 74%; in assay [1] it was -6%; in assay [2], -2%.

As to `O=C(N/N=C\c1ccc[nH]1)C12CC3CC(CC(C3)C1)C2` [Example 17, (Z)-N′-((1H-Pyrrol-2-yl)methylene)tricyclo [3.3.1^3,7]decane-3-carbohydrazide], the values for the inhibition at 10 µM (on human TRPM5 ion channel; in assay [1]; in assay [2]) were 40%, -13% and 8%, respectively.

In the case of `CCN(CCO)c1ccc(N/N=C2\C(=O)C=Cc3ccccc32)cc1` [Example 18, (Z)-1-(2-(4-(Ethyl-(2-hydroxyethyl)-amino)phenyl)hydrazono)naphthalen-2(1H)-one], the figures for the inhibition at 10 µM (at human TRPM5 ion channel; in assay [1]; in assay [2]) were 87%, -9% and 33%, respectively.

In the case of `CN(/N=C/c1ccc(O)cc1O)c1ncc(Cl)cc1C(F)(F)F` [Example 19, (E)-4-((2-(5-Chloro-3-(trifluoromethyl)pyridini-2-yl)-2-2-methylhydrazono)methyl)benzene-1,3-diol], the inhibition at 10 µM turned out to be 65% on human TRPM5 ion channel, 5% in assay [1] and 36% in assay [2].

As to `Cc1ccc(NCC(=O)N/N=C/c2ccc(N3CCOCC3)c([N+](=O)[O-])c2)cc1C` [Example 20, (E)-2-(3,4-Dimethylphenylamino)-N′-(4-morpholino-3-nitrobenzylidene)acetohydrazide], the figures for the inhibition at 10 µM (on human TRPM5 ion channel; in assay [1]; in assay [2]) were 70%, -3% and 16%, respectively.

As to `O=[N+](O)c1ccc(N2CCCC2)cc1N/N=C1\CN2CCC1CC2` [Example 21], the inhibition at 10 µM on human TRPM5 ion channel amounted to 51%; in assay [1] it was 6%; in assay [2], 42%.
